Reference: patent US10259810B2, “N-sulfonylated pyrazolo[3,4-b]pyridin-6-carboxamides and method of use” (AbbVie S.à.r.l., priority 2015, dated 2019)
pEC50: −log10 of the molar value. Read-outs that look alike come from different tables or passages of the source.

How the values were obtained:
Assay type in all cases: cell-based
[1] = target: T1, CFTR ΔF508 (Homo sapiens, UniProt P13569, DEL508-508); assay: Chronic TECC assay, primary bronchial epithelial cells of CF patients homozygous for CFTR ΔF508 (corrector, co-corrector and potentiator); details: chronic TECC; for % Activity at 1 μM (Ieq*) / % Activity at 1 μM (AUC**): test compound at 1 μM
T1 construct: bronchial epithelial cells isolated from CF patients homozygous for the CFTR ΔF508 mutation; McGill University; Asterand; University of North Carolina hAEC-CF; host or cells: primary human bronchial epithelial cells from CF patients homozygous for ΔF508, differentiated at air-liquid interface
Method in brief: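 Primary bronchial epithelial cells from ΔF508-homozygous CF patients on collagen IV-coated Transwells were chronically treated with test compound plus corrector and potentiator, which were re-added before recording. Ieq was derived from PD and Rt in NaCl-Ringer, pH 7.4, at 37° C, with apical amiloride and bilateral forskolin, recorded every 2 min over 20 min. Ieq increase was normalized to controls, and EC50 was taken from per-well concentrations.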

[2] = target: T2, ΔF508-CFTR (Homo sapiens, UniProt P13569, DEL508-508); assay: CFTR cell surface levels using HRP-tagged ΔF508-CFTR expressing CFBE cells, in the presence of a co-corrector; details: HRP-tagged ΔF508-CFTR CFBE cells, in the presence of 3 μM co-corrector; for pEC50: read-out: EC50
T2 construct: host or cells: CFBE41o-, doxycycline-inducible
Method in brief: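 Chemiluminescent read-out of surface HRP (15 min, dark) after PBS washes. Activity is normalized as 100×(sample−DMSO)/(3 μM co-corrector alone−DMSO).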

[3] = target: T2, ΔF508-CFTR; assay: CFTR cell surface levels using HRP-tagged ΔF508-CFTR expressing CFBE cells, intrinsic corrector capacity; set-up: % Activation: concentration or dose not given beside the values; details: HRP-tagged ΔF508-CFTR expressing CFBE41o- cells, compound alone (intrinsic corrector capacity), 20 hours at 33° C.; for pEC50: read-out: EC50
Method in brief: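 Read-out: chemiluminescent HRP activity of ECL4-HRP-tagged ΔF508-CFTR at the cell surface, 15 min substrate in dark. Normalized as 100×(sample−DMSO)/(positive control−DMSO).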

[4] = Ieq = calculations based on the maximum current, read-out: EC50 (nM) (Ieq*)
[5] = Ieq = calculations based on the maximum current
[6] = AUC = full area under the curve upon forskolin stimulation, read-out: EC50 (nM) (AUC**)
[7] = AUC = full area under the curve upon forskolin stimulation

T1 sequence (P13569 with tags, fused parts or gaps DEL508-508): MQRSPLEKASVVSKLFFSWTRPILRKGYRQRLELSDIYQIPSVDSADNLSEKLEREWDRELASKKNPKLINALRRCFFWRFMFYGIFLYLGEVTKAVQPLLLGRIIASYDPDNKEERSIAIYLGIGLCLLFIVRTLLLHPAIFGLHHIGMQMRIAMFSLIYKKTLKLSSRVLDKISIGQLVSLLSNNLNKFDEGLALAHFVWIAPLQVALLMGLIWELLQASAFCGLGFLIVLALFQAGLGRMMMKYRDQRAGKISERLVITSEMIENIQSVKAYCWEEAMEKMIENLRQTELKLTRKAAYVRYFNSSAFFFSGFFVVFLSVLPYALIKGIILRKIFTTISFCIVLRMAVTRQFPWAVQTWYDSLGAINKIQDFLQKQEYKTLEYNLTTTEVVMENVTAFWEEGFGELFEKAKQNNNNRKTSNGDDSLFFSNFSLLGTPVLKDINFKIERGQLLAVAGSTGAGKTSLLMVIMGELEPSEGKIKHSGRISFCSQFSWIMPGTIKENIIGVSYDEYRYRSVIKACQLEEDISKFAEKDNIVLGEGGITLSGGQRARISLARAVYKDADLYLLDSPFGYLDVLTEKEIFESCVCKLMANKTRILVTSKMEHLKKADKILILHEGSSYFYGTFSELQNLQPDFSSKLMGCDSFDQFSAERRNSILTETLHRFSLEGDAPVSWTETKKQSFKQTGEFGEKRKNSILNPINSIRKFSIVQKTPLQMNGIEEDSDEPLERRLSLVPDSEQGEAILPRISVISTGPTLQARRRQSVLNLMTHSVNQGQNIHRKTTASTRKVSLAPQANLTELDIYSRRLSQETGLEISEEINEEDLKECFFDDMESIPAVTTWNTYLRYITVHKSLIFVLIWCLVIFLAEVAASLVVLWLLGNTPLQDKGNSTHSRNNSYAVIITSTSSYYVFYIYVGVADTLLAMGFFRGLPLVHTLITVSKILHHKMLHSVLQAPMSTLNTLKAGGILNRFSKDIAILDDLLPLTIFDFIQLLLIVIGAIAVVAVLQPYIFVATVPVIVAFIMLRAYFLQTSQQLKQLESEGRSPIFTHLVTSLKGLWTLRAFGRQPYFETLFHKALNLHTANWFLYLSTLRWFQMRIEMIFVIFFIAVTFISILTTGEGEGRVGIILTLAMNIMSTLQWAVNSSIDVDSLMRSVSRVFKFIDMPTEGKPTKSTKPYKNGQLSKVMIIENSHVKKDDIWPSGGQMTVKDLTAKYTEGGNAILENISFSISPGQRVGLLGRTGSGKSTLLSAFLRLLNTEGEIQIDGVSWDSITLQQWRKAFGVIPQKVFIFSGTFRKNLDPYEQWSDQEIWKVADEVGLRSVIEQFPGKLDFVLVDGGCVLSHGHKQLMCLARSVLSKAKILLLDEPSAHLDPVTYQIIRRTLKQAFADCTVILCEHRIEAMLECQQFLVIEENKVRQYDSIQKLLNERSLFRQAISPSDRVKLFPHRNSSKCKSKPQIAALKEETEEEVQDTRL
T2 sequence (P13569 with tags, fused parts or gaps DEL508-508): as above

Structure (SMILES): CC(C)c1nn(-c2cccc(N(C)C)c2)c2nc(C(=O)NS(C)(=O)=O)cc(-c3cnc(N(C)C4CCOCC4)nc3)c12 [Compound 91, 1-[3-(dimethylamino)phenyl]-N-(methanesulfonyl)-4-{2-[methyl(oxan-4-yl)amino]pyrimidin-5-yl}-3-(propan-2-yl)-1H-pyrazolo[3,4-b]pyridine-6-carboxamide]
- EC50 [1, 4]: < 30 nM
- % Activity at 1 μM (Ieq*) [1, 5]: 250%
- % Activation [2]: 619.45%
- pEC50 [2]: 6.05
- % Activation [3]: 388.15%
- pEC50 [3]: 6.42

Structure (SMILES): COCC1CCN(c2cc(C(=O)NS(=O)(=O)N(C)C)nc3c2c(C2CCC2)nn3-c2ccccc2)CC1 [Compound 402, 3-cyclobutyl-N-(dimethylsulfamoyl)-4-[4-(methoxymethyl)piperidin-1-yl]-1-phenyl-1H-pyrazolo[3,4-b]pyridine-6-carboxamide]
- EC50 [1, 6]: 12.1 nM
- % Activity at 1 μM (AUC**) [1, 7]: 345.045%
- % Activation [2]: 471.42%
- pEC50 [2]: 6.93
- % Activation [3]: 303.5%
- pEC50 [3]: 6.51

Structure (SMILES): CCS(=O)(=O)N(C)C(=O)c1cc(N2CCC(CN3CCCC3)CC2)c2c(C3CCC3)nn(-c3ccccc3)c2n1 [Compound 659, 3-cyclobutyl-N-(ethanesulfonyl)-N-methyl-1-phenyl-4-{4-[(pyrrolidin-1-yl)methyl]piperidin-1-yl}-1H-pyrazolo[3,4-b]pyridine-6-carboxamide]
- % Activity at 3 μM (AUC**) ([1]; test compound at 3 μM, AUC = full area under the curve upon forskolin stimulation): 251.6549%
- % Activation [2]: 290.95%
- pEC50 [2]: 6.88
- % Activation [3]: 96.44%
- pEC50 [3]: 6.85

Structure (SMILES): CC(C)Oc1nn(C2CCCCC2)c2nc(C(=O)NS(C)(=O)=O)cc(-c3ccc(CN4CCN(C(C)C)CC4)cc3)c12 [Compound 634, 1-cyclohexyl-N-(methanesulfonyl)-3-[(propan-2-yl)oxy]-4-(4-{[4-(propan-2-yl)piperazin-1-yl]methyl}phenyl)-1H-pyrazolo[3,4-b]pyridine-6-carboxamide]
- EC50 [1, 6]: 138 nM
- % Activation [2]: 439.44%
- pEC50 [2]: 7.10
- % Activation [3]: 227.46%
- pEC50 [3]: 6.70

Structure (SMILES): CS(=O)(=O)NC(=O)c1cc(OCC2CCOCC2)c2c(C3CCC3)nn(-c3ccccc3)c2n1 [Compound 200, 3-cyclobutyl-N-(methanesulfonyl)-4-[(oxan-4-yl)methoxy]-1-phenyl-1H-pyrazolo[3,4-b]pyridine-6-carboxamide]
- % Activity at 1 μM (AUC**) [1, 7]: 364.3%
- % Activation [2]: 318.27%
- pEC50 [2]: 7.02
- % Activation [3]: 163.43%
- pEC50 [3]: 6.50

Structure (SMILES): COCCN(C)c1ccc(-c2cc(C(=O)NS(C)(=O)=O)nc3c2c(C(C)C)nn3-c2cccc(N3CCOCC3)c2)cn1 [Compound 86, N-(methanesulfonyl)-4-{6-[(2-methoxyethyl)(methyl)amino]pyridin-3-yl}-1-[3-(morpholin-4-yl)phenyl]-3-(propan-2-yl)-1H-pyrazolo[3,4-b]pyridine-6-carboxamide]
- EC50 [1, 4]: 30 nM
- % Activity at 1 μM (Ieq*) [1, 5]: 210%
- % Activation [2]: 489.56%
- pEC50 [2]: 6.59
- % Activation [3]: 329.92%
- pEC50 [3]: 6.20

Structure (SMILES): CC(C)c1nn(-c2cccc(N3CCOCC3)n2)c2nc(C(=O)NS(C)(=O)=O)cc(-c3ccc(N4CCOCC4)cc3)c12 [Compound 128, N-(methanesulfonyl)-4-[4-(morpholin-4-yl)phenyl]-1-[6-(morpholin-4-yl)pyridin-2-yl]-3-(propan-2-yl)-1H-pyrazolo[3,4-b]pyridine-6-carboxamide]
- EC50 [1, 4]: < 30 nM
- % Activity at 1 μM (Ieq*) [1, 5]: 235%
- % Activation [2]: 529.57%
- pEC50 [2]: 6.60
- % Activation [3]: 357.47%
- pEC50 [3]: 6.29

Structure (SMILES): COCC1CCN(c2cc(C(=O)NS(C)(=O)=O)nc3c2c(C2CCC2)nn3-c2ccc(F)cc2)CC1 [Compound 316, 3-cyclobutyl-1-(4-fluorophenyl)-N-(methanesulfonyl)-4-[4-(methoxymethyl)piperidin-1-yl]-1H-pyrazolo[3,4-b]pyridine-6-carboxamide]
- EC50 [1, 6]: 45 nM
- % Activity at 1 μM (AUC**) [1, 7]: 452.88%
- % Activation [2]: 555.55%
- pEC50 [2]: 7.61
- % Activation [3]: 380.5%
- pEC50 [3]: 6.74

Structure (SMILES): CC(C)c1nn(-c2cccc(N(C)C)c2)c2nc(C(=O)NS(C)(=O)=O)cc(-c3ccc(N(C)C4CCOCC4)cc3)c12 [Compound 96, 1-[3-(dimethylamino)phenyl]-N-(methanesulfonyl)-4-{4-[methyl(oxan-4-yl)amino]phenyl}-3-(propan-2-yl)-1H-pyrazolo[3,4-b]pyridine-6-carboxamide]
- EC50 [1, 4]: < 30 nM
- % Activity at 1 μM (Ieq*) [1, 5]: 310%
- % Activation [2]: 707.5%
- pEC50 [2]: 6.33
- % Activation [3]: 406.6%
- pEC50 [3]: 6.44

Structure (SMILES): CN(C)S(=O)(=O)NC(=O)c1cc(N2CCC(N3CCOCC3)CC2)c2c(C3CCC3)nn(-c3ccnc(OC(F)F)c3)c2n1 [Compound 575, 3-cyclobutyl-1-[2-(difluoromethoxy)pyridin-4-yl]-N-(dimethylsulfamoyl)-4-[4-(morpholin-4-yl)piperidin-1-yl]-1H-pyrazolo[3,4-b]pyridine-6-carboxamide]
- % Activity at 1 μM (AUC**) [1, 7]: 246.6667%
- % Activation [2]: 361.3%
- pEC50 [2]: 7.06
- % Activation [3]: 202.65%
- pEC50 [3]: 6.83

Structure (SMILES): CN(C)S(=O)(=O)NC(=O)c1cc(N2CCC(N3CCC(F)CC3)CC2)c2c(C3CCC3)nn(-c3ccc(F)cc3)c2n1 [Compound 525, 3-cyclobutyl-N-(dimethylsulfamoyl)-4-(4-fluoro[1,4'-bipiperidin]-1'-yl)-1-(4-fluorophenyl)-1H-pyrazolo[3,4-b]pyridine-6-carboxamide]
- EC50 [1, 6]: 50.3 nM
- % Activity at 1 μM (AUC**) [1, 7]: 477.2665%
- % Activation [2]: 460.3%
- pEC50 [2]: 7.13
- % Activation [3]: 274.75%
- pEC50 [3]: 6.86

Structure (SMILES): O=C(NS(=O)(=O)CCO)c1cc(N2CCC(N3CCOCC3)CC2)c2c(C3CCC3)nn(-c3ccc(F)cc3)c2n1 [Compound 448, 3-cyclobutyl-1-(4-fluorophenyl)-N-(2-hydroxyethanesulfonyl)-4-[4-(morpholin-4-yl)piperidin-1-yl]-1H-pyrazolo[3,4-b]pyridine-6-carboxamide]
- % Activity at 1 μM (AUC**) [1, 7]: 116.8948%
- % Activation [2]: 431.1%
- pEC50 [2]: 6.74
- % Activation [3]: 258.2%
- pEC50 [3]: 6.32

Structure (SMILES): CN(C)S(=O)(=O)NC(=O)c1cc(N2CCN(c3ccncc3)CC2)c2c(C3CCC3)nn(C3CCCCC3)c2n1 [Compound 469, 3-cyclobutyl-1-cyclohexyl-N-(dimethylsulfamoyl)-4-[4-(pyridin-4-yl)piperazin-1-yl]-1H-pyrazolo[3,4-b]pyridine-6-carboxamide]
- EC50 [1, 6]: 108 nM
- % Activity at 1 μM (AUC**) [1, 7]: 293.3333%
- % Activation [2]: 469.4%
- pEC50 [2]: 6.90
- % Activation [3]: 253.8%
- pEC50 [3]: 6.69

Structure (SMILES): COCCS(=O)(=O)NC(=O)c1cc(N2CCC(N3CCOCC3)CC2)c2c(C3CCC3)nn(-c3ccc(F)cc3)c2n1 [Compound 407, 3-cyclobutyl-1-(4-fluorophenyl)-N-(2-methoxyethanesulfonyl)-4-[4-(morpholin-4-yl)piperidin-1-yl]-1H-pyrazolo[3,4-b]pyridine-6-carboxamide]
- EC50 [1, 6]: 48.9 nM
- % Activity at 1 μM (AUC**) [1, 7]: 310%
- % Activation [2]: 494.15%
- pEC50 [2]: 6.91
- % Activation [3]: 331.45%
- pEC50 [3]: 6.30
